Values after ≈ are worked out from the molar mass of the structure shown.
Legend:
[1] = Terminal half life in Sprague-Dawley rat at 3 mg/kg, iv; assay type: ADME, organism-based; parameters: dose 3 mg/kg, route intravenous; details: in vivo, read-out: beta t1/2 (converted)
[2] = Clearance in Sprague-Dawley rat at 3 mg/kg, iv; details: in vivo
[3] = Lipophilicity, log P of the compound by HPLC analysis; assay type: physicochemical
Cannabinoid receptor 1 = Cannabinoid receptor 1 (Homo sapiens, UniProt P21554); experiment: Binding affinity to human CB1 receptor expressed in CHO cells by radioligand displacement based scintillation counting analysis; assay type: cell-based
Sequence of Cannabinoid receptor 1 (P21554 whole entry): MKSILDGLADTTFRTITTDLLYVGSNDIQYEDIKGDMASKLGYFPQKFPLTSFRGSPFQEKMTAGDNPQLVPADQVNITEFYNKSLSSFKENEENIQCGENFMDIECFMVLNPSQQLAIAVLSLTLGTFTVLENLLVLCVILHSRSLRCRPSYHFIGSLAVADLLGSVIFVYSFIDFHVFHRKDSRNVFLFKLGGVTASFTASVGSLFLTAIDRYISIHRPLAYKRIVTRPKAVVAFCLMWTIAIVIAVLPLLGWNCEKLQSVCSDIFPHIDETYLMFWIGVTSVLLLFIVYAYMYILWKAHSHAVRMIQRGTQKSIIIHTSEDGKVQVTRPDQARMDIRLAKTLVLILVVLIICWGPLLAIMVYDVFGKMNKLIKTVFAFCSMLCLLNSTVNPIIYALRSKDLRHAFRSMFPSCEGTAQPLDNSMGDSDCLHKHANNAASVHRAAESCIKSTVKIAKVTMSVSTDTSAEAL

Rattus norvegicus [4] = experiment: Reduction in food intake in nonfasted po dosed Sprague-Dawley rat measured for 20 hrs; assay type: functional; details: read-out: MED
Liver microsome = experiment: Clearance in rat liver microsomes at 1 to 3 uM after 20 mins by LC/MS/MS analysis
[5] = Aqueous solubility of the compound; assay type: physicochemical; details: buffer
[6] = Fraction unbound in rat plasma at 10 uM by equilibrium dialysis method; assay type: ADME, cell-free
Rattus norvegicus [7] = experiment: Reduction in food intake in nonfasted po dosed Sprague-Dawley rat measured for 8 hrs; assay type: functional; details: read-out: MED
Cytochrome P450 2C9 = Cytochrome P450 2C9 (Homo sapiens, UniProt P11712); experiment: Inhibition of human recombinant CYP2C9; assay type: ADME
Sequence of Cytochrome P450 2C9 (P11712 whole entry): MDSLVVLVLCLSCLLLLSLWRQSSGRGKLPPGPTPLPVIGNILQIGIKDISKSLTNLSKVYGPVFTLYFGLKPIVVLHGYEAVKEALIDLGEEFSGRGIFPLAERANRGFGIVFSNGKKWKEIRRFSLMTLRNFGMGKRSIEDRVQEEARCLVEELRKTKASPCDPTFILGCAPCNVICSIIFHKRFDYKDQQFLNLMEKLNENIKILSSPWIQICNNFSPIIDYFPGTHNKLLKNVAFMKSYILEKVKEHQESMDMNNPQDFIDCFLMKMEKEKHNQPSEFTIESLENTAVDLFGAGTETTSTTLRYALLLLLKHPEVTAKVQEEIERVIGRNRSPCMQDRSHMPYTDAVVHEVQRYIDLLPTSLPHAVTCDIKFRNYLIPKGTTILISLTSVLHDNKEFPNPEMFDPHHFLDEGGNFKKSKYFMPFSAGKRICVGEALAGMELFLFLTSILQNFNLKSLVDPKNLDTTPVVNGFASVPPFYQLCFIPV

Rattus norvegicus [8] = experiment: Reduction in food intake in nonfasted Sprague-Dawley rat at 3 mg/kg, po measured for 8 hrs; assay type: functional; parameters: scale not given: the % may be the effect or the level left
Cytochrome P450 2C19 = Cytochrome P450 2C19 (Homo sapiens, UniProt P33261); experiment: Inhibition of human recombinant CYP2C19; assay type: ADME
Sequence of Cytochrome P450 2C19 (P33261 whole entry): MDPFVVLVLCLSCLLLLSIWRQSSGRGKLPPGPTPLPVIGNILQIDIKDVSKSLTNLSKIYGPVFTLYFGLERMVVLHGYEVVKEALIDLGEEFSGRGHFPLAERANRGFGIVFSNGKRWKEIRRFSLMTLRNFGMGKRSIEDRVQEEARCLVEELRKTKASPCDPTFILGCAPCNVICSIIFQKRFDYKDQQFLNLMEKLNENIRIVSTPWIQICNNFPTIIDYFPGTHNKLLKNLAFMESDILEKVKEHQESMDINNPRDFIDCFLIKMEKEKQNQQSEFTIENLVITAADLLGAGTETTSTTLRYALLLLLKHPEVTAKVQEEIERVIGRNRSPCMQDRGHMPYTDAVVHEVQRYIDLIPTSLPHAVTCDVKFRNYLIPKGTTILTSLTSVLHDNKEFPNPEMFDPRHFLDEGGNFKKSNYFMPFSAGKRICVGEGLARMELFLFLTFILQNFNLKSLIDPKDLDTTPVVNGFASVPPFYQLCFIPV

Cytochrome P450 3A4 [9] = target: T1, Cytochrome P450 3A4 (Homo sapiens, UniProt P08684); experiment: Inhibition of human recombinant CYP3A4
T1 sequence (P08684 whole entry): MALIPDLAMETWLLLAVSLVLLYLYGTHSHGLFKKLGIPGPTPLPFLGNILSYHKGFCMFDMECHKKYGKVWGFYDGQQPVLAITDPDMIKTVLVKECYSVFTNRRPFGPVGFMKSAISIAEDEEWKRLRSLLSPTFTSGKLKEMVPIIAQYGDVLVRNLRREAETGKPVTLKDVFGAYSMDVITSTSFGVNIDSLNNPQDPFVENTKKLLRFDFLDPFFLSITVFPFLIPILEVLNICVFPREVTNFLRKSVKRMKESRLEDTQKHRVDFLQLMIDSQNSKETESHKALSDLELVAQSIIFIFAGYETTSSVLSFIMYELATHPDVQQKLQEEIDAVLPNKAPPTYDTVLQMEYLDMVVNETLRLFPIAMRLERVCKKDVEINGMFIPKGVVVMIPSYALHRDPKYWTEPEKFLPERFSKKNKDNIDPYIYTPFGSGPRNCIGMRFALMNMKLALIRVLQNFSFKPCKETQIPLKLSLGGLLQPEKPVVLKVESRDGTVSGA

[10] = Oral bioavailability in Sprague-Dawley rat; assay type: ADME, organism-based; details: in vivo
Rattus norvegicus [11] = experiment: Reduction in food intake in nonfasted Sprague-Dawley rat at 10 mg/kg, po measured for 8 hrs; assay type: functional; parameters: scale not given: the % may be the effect or the level left
Rattus norvegicus [12] = experiment: Antiobesity activity in rat assessed as reduction in food intake at 10 mg/kg; assay type: functional; parameters: scale not given: the % may be the effect or the level left
[13] = AUC (0 to 24 hrs) in rat at 10 mg/kg, qd; assay type: ADME, organism-based; parameters: time < 24 hr, dose 10 mg/kg; details: plasma
[14] = Cmax in rat at 10 mg/kg, qd; assay type: ADME, organism-based; parameters: dose 10 mg/kg; details: in vivo
[15] = Oral bioavailability in dog; assay type: ADME, organism-based, Canis lupus familiaris; details: in vivo
Cytochrome P450 3A4 [16] = target: T1, Cytochrome P450 3A4; experiment: Inhibition of CYP3A4 in human liver microsomes; assay type: ADME
Cytochrome P450 3A4 [17] = target: T1, Cytochrome P450 3A4; experiment: Inhibition of CYP3A4 in human hepatocytes; assay type: ADME, cell-based, Hepatocyte
[18] = Elimination half life in iv dosed dog; assay type: ADME, organism-based, Canis lupus familiaris; details: in vivo, read-out: beta t1/2 (converted)
[19] = Elimination half life in iv dosed cynomolgus monkey; assay type: ADME, organism-based, Macaca fascicularis; details: in vivo, read-out: beta t1/2 (converted)
[20] = Oral bioavailability in cynomolgus monkey; assay type: ADME, organism-based, Macaca fascicularis; details: in vivo
Rattus norvegicus [21] = experiment: Antiobesity activity in rat assessed as reduction in body weight at 10 mg/kg, qd after 4 days; assay type: functional; parameters: scale not given: the % may be the effect or the level left

Structure (SMILES) | half-life [1] [h] | logP [3] | Ki (Cannabinoid receptor 1) [nM] | IC50 (Cytochrome P450 2C9) [nM] | IC50 (Cytochrome P450 2C19) [nM] | further results
O=c1n(Cc2ccc(C(F)(F)F)nc2)nc2c(-c3ccncc3)c(-c3ccc(Cl)cc3)cnn12 | 15 | 3.2 | 12 |  |  | clearance [2]: 0.4 mL/min/kg; minimal effective dose (Rattus norvegicus [4]): 0.3 mg/kg
CCCn1nc2c(-c3ccc(Cl)cc3)c(-c3ccc(C#N)cc3)c(=O)n(Cc3ccc(C(F)(F)F)nc3C)n2c1=O | 29 | 5.1 | 1.7 |  |  | CLH (Liver microsome): 0.17 nmol/min/mg; clearance [2]: 29 mL/min/kg
Cc1nn2c(=O)n(Cc3ccc(C(F)(F)F)nc3)nc2c(-c2ccncc2)c1-c1ccc(Cl)cc1 |  | 3.3 | 210 |  |  | 
COc1nn2c(=O)n(Cc3ccc(C(F)(F)F)nc3)nc2c(-c2ccncc2)c1-c1ccc(Cl)cc1 | 17 | 3.7 | 10 |  |  | minimal effective dose (Rattus norvegicus [4]): 3 mg/kg
O=c1[nH]n2c(=O)n(Cc3ccc(C(F)(F)F)nc3)nc2c(-c2ccncc2)c1-c1ccc(Cl)cc1 |  | 2.5 | 4000 |  |  | 
Cn1c(=O)c(-c2ccc(Cl)cc2)c(-c2ccncc2)c2nn(Cc3ccc(C(F)(F)F)nc3)c(=O)n21 | 35 | 3.5 | 18 |  |  | solubility [5]: 1 µg/mL (≈ 1.95 µM); minimal effective dose (Rattus norvegicus [4]): 1 mg/kg
N#Cc1ccc(Cn2nc3c(-c4ccncc4)c(-c4ccc(Cl)cc4)c(=O)n(Cc4ccc(C#N)cc4)n3c2=O)cc1 |  |  | 4.2 |  |  | 
Cn1nc2c(-c3ccncc3)c(-c3ccc(Cl)cc3)c(=O)n(Cc3ccc(C#N)cc3)n2c1=O |  |  | 214 |  |  | 
Cn1nc2c(-c3ccc(Cl)cc3)c(-c3ccncc3)c(=O)n(Cc3ccc(C#N)cc3)n2c1=O | 3.5 | 3 | 29 |  |  | fraction unbound at 10 µM [6]: 0.05
Cn1nc2c(-c3ccc(Cl)cc3)c(-c3ccncc3)c(=O)n(Cc3ccc(C(F)(F)F)nc3)n2c1=O | 6 |  | 28 | 1900 | 4300 | minimal effective dose (Rattus norvegicus [7]): 3 mg/kg; Activity (Rattus norvegicus [8]): 21%; solubility [5]: 40 µg/mL (≈ 78 µM)
Cc1nc(C(F)(F)F)ccc1Cn1c(=O)c(-c2ccncc2)c(-c2ccc(Cl)cc2)c2nn(C)c(=O)n21 | 3.3 |  | 9 | 2900 | 700 | minimal effective dose (Rattus norvegicus [7]): 3 mg/kg; clearance [2]: 6.3 mL/min/kg; Activity (Rattus norvegicus [8]): 33%; IC50 (Cytochrome P450 3A4 [9]): 6800 nM
CCn1nc2c(-c3ccc(Cl)cc3)c(-c3ccncc3)c(=O)n(Cc3ccc(C(F)(F)F)nc3)n2c1=O | 2.4 | 4 | 15 | 4900 | 11000 | clearance [2]: 37 mL/min/kg; IC50 (Cytochrome P450 3A4 [9]): 18000 nM
CCn1nc2c(-c3ccc(Cl)cc3)c(-c3ccncc3)c(=O)n(Cc3ccc(C(F)(F)F)nc3C)n2c1=O | 5 | 3.9 | 4.5 | 4200 | 2600 | bioavailability [10]: 50%; Activity (Rattus norvegicus [11]): 51%; minimal effective dose (Rattus norvegicus [7]): 10 mg/kg; Activity (Rattus norvegicus [12]): 43%; AUC at 24 h [13]: 48 µM·h; Cmax [14]: 4 µM; bioavailability [15]: 40%; IC50 (Cytochrome P450 3A4 [16]): 9100 nM; IC50 (Cytochrome P450 3A4 [17]): 3000 nM; half-life [18]: 38 h; half-life [19]: 6 h; bioavailability [20]: 15%; Activity (Rattus norvegicus [21]): 4%
CCn1nc2c(-c3ccc(Cl)cc3)c(-c3ccncc3C)c(=O)n(Cc3ccc(C(F)(F)F)nc3C)n2c1=O |  | 4.2 | 8.4 | 5000 | 32000 | IC50 (Cytochrome P450 3A4 [9]): > 40000 nM

Reference: ChEMBL document CHEMBL3259698, “Reductions in log P improved protein binding and clearance predictions enabling the prospective design of cannabinoid receptor (CB1) antagonists with desired pharmacokinetic properties” (J Med Chem, 2013)
